Source: patent US20140018303A1
Read-outs that look alike come from different tables or passages of the source.

Key:
[1] = target: T1, aminopeptidase N (L5006-25UN, Sigma) (Sus scrofa, UniProt P15145)
T1 sequence (P15145 1-963): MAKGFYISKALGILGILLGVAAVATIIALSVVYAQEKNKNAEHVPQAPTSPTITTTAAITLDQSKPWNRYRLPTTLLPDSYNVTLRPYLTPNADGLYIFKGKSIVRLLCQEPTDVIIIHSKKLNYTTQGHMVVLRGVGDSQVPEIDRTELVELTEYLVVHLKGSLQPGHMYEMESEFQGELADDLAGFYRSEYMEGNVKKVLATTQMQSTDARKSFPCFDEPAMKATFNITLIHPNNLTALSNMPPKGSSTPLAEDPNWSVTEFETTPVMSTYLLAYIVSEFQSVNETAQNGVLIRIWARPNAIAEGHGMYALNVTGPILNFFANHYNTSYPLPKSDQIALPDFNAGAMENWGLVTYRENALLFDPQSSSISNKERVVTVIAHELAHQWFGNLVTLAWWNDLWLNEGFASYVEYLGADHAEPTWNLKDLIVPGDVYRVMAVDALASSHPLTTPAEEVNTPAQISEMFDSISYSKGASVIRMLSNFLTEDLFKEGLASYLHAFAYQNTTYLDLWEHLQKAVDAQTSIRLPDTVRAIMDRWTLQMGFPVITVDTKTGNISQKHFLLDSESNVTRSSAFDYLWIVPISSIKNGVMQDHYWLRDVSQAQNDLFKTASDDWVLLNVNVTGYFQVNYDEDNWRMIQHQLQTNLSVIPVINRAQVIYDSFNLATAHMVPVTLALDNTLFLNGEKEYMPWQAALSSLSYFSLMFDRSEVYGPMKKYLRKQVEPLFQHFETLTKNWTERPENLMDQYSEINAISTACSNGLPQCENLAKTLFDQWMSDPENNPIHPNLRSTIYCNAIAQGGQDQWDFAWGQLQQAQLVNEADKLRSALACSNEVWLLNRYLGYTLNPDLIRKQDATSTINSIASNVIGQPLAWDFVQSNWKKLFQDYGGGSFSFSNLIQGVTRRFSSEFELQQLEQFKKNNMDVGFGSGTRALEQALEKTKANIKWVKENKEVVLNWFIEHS
Protocol: Biotechnol., 1995, 5(1):36-40” is followed to analyze the bioactivity of 3-amino-2-hydroxy-4-phenylbutanoyl-valyl-isoleucine, taking bestatin, a typical APN inhibitor used in leukemia treatment, as positive control.
The procedure for the assay is as follows: apply 100 μl (1 mg/ml in a 0.1M Tris-HCl, pH 7.0) of substrate (L-leucine-p-nitroanilide) to a 96-well plate, mix with 20 µl (0.1M Tris-HCl, pH 7.0) of the compound to be assayed of different concentration (0.86, 1.71, 2.57, 4.29, 8.57 μg/ml). Incubate at 37° C. for 3 min, followed by addition of 20 μl (2 mU, 0.1M Tris-HCl, pH 7.0) aminopeptidase N (L5006-25UN, Sigma), incubate at 37° C. for 30 min. Read the absorbance at 405 nm.
The inhibition rate is presented as:
Inhibition rate=(A−B)/A*100%
wherein: • A is the absorbance tested without inhibitor in the system. • B is the absorbance detected in the system containing different concentration of the compound. Use 0.1M Tris-HCl (pH 7.0) to normalize the buffer.

[2] = Solubility of the purified product in solvents; type: physicochemical
Protocol: The broth is harvested and placed at 4° C. overnight. Remove the precipitate by centrifugation at 4000 rpm, 4° C., for 30 min. The supernatant is subject to macroporous resin, which is selected from: XAD-1600, SP850, or JD-1, by either static or dynamic mode. The resin is then eluted with double volume of purified water, 10%, 30%, 50%, 75%, and 100% of ethanol. Collect the fraction of the 50% elute and concentrate it under reduced pressure at 40° C. Dilute the concentrate by 10 fold with 30% acetonitrile and centrifuge at 12000 rpm for 10 min. Load 15-25 ml of the supernatant to a column for preparative chromatography (Biotage Si 25+M 1603-2, USA) at room temperature. Elute the column with 30% acetonitrile at flow rate of 3-5 ml/min, and collect the fraction of 200-400 ml. The collected elute is then concentrate under reduced pressure at 40° C., and the concentrate is subject to preparative HPLC by DIONEXP680 system or Agilent 1100 DAD system. The fraction containing target compound is concentrated and dried under reduced pressure at 40° C., and a purified product is obtained. […]

[3] = read-out: Inhibition Rate against APN (IR)

Compound	inhibition at 0.86 µg/mL [1, 3] [%]	inhibition at 1.71 µg/mL [1, 3] [%]	inhibition at 2.57 µg/mL [1, 3] [%]	inhibition at 4.29 µg/mL [1, 3] [%]	inhibition at 8.57 µg/mL [1, 3] [%]	Inhibition Rate against APN (IR) ([1]; concentration 0.86 μg/ml) [%]	Inhibition Rate against APN (IR) ([1]; concentration 1.71 μg/ml) [%]	Inhibition Rate against APN (IR) ([1]; concentration 2.57 μg/ml) [%]	Inhibition Rate against APN (IR) ([1]; concentration 4.29 μg/ml) [%]	Inhibition Rate against APN (IR) ([1]; concentration 8.57 μg/ml) [%]	solubility ([2]; in chloroform)	solubility ([2]; in methanol, ethanol, water and acetonitrile)
CC(C)C[C@H](NC(=O)[C@@H](O)[C@H](N)Cc1ccccc1)C(=O)O [positive control, bestatin, reference compound]	41.6	44.4	47.1	52.6	66.5	–	–	–	–	–	–	–
CC[C@H](C)[C@H](NC(=O)[C@@H](NC(=O)C(O)C(N)Cc1ccccc1)C(C)C)C(=O)O (stereo partly drawn) [the compound]	–	–	–	–	–	42.02	51.40	65.14	70.79	77.91	insoluble	soluble
